Laboratory results as given in PubChem BioAssay AID330 (DTP/NCI, 2004).
Where “and” joins values, the source holds several entries; their conditions need not be identical. Equal values may be shown once. Inconclusive results and toxic doses are left out. Rule for the calls: active = survival T/C of 150% or more; inactive = T/C below 125% in these data. Peptide text beside a SMILES is read from it.

Tested on: P388 leukemia ip, CD2F1 mice, survival T/C
Assay: NCI In Vivo Anticancer Drug Screen. Data for tumor model P388 Leukemia (intraperitoneal) in CD2F1 (CDF1) mice
Settings: endpoint: median survival time, higher = longer survival
Summary of the method: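 Mice carrying the transplanted tumor received test compound or vehicle. Survival was recorded in each group, and the value is the treated-group measurement divided by that of the vehicle-treated control group.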

[1] = dose: 100.0 mg/kg/injection, schedule: Q04DX003 (ip), vehicle: saline with Tween-80
[2] = dose: 200.0 mg/kg/injection, schedule: Q04DX003 (ip), vehicle: saline with Tween-80
[3] = dose: 100.0 mg/kg/injection, schedule: Q01DX009 (ip), vehicle: saline with Tween-80
[4] = dose: 200.0 mg/kg/injection, schedule: Q01DX009 (ip), vehicle: saline with Tween-80
[5] = dose: 50.0 mg/kg/injection, schedule: Q01DX005 (ip), vehicle: saline with Tween-80
[6] = dose: 100.0 mg/kg/injection, schedule: Q01DX005 (ip), vehicle: saline with Tween-80
[7] = dose: 200.0 mg/kg/injection, schedule: Q01DX005 (ip), vehicle: saline with Tween-80
[8] = dose: 50.0 mg/kg/injection, schedule: Q01DX005 (ip), vehicle: Klucel (hydroxypropylcellulose) (HPC)
[9] = dose: 100.0 mg/kg/injection, schedule: Q01DX005 (ip), vehicle: Klucel (hydroxypropylcellulose) (HPC)
[10] = dose: 200.0 mg/kg/injection, schedule: Q01DX005 (ip), vehicle: Klucel (hydroxypropylcellulose) (HPC)
[11] = dose: 100.0 mg/kg/injection, schedule: Q01DX009 (ip), vehicle: saline
[12] = dose: 200.0 mg/kg/injection, schedule: Q01DX009 (ip), vehicle: saline
[13] = dose: 600.0 mg/kg/injection, schedule: Q01DX009 (ip), vehicle: saline
[14] = dose: 25.0 mg/kg/injection, schedule: Q01DX009 (ip), vehicle: saline with Tween-80
[15] = dose: 50.0 mg/kg/injection, schedule: Q01DX009 (ip), vehicle: saline with Tween-80
[16] = dose: 50.0 mg/kg/injection, schedule: Q01DX005 (ip), vehicle: saline
[17] = dose: 100.0 mg/kg/injection, schedule: Q01DX005 (ip), vehicle: saline

Measured: T/C

O=c1c2c([nH]c3ccc4[nH]c5c(c(=O)c4c13)CCCC5)CCCC2
inactive: [1] 94 % of control | [2] 91 % of control | dose: 400.0 mg/kg/injection, schedule: Q04DX003 (ip), vehicle: saline with Tween-80 87 % of control

CCCCCCCCCC(=O)OC(C)C(=O)N(CCCC)CCCC (centres undefined)
inactive: [3] 110 % of control | [4] 102 % of control | dose: 400.0 mg/kg/injection, schedule: Q01DX009 (ip), vehicle: saline with Tween-80 106 % of control

COC(=O)CCC(=O)C(C#N)c1nc2ccccc2s1 (centres undefined)
inactive: [5] 94 % of control | [6] 92 % of control | [7] 92 % of control

CC(=O)OCc1ccc(/C=c2/[nH]c(=O)/c(=C\c3ccc(COC(C)=O)o3)[nH]c2=O)o1
inactive: dose: 12.5 mg/kg/injection, schedule: Q01DX009 (ip), vehicle: distilled water + Tween-80 88 % of control | dose: 25.0 mg/kg/injection, schedule: Q01DX009 (ip), vehicle: distilled water + Tween-80 90 % of control | dose: 50.0 mg/kg/injection, schedule: Q01DX009 (ip), vehicle: distilled water + Tween-80 96 % of control | dose: 100.0 mg/kg/injection, schedule: Q01DX009 (ip), vehicle: distilled water + Tween-80 114 % of control | dose: 200.0 mg/kg/injection, schedule: Q01DX009 (ip), vehicle: distilled water + Tween-80 99 % of control

Cc1ccc(SSc2ccc(C(C)(C)C)cc2)cc1
inactive: [8] 97 % of control | [9] 102 % of control | [10] 99 % of control

O=[N+]([O-])OC1CCCC(O[N+](=O)[O-])c2c1n([O-])c1ccccc1[n+]2=O (centres undefined)
inactive: [5] 95 % of control | [6] 89 % of control | [7] 92 % of control

Cc1cc(=S)c2cc3c(cc2[nH]1)OCO3
inactive: [8] 107 % of control | [9] 101 % of control | [10] 103 % of control

C#CCOc1c(Cl)cc(Cl)c2ccccc12
inactive: dose: 100.0 mg/kg/injection, schedule: Q04DX003 (ip), vehicle: Klucel (hydroxypropylcellulose) (HPC) 100 % of control | dose: 200.0 mg/kg/injection, schedule: Q04DX003 (ip), vehicle: Klucel (hydroxypropylcellulose) (HPC) 93 % of control | dose: 400.0 mg/kg/injection, schedule: Q04DX003 (ip), vehicle: Klucel (hydroxypropylcellulose) (HPC) 93 % of control

COC(=O)C1C2CCCN2OC1(C)CO (centres undefined)
inactive: dose: 7.5 mg/kg/injection, schedule: Q01DX005 (ip), vehicle: saline 100 % of control | dose: 15.0 mg/kg/injection, schedule: Q01DX005 (ip), vehicle: saline 106 % of control | dose: 120.0 mg/kg/injection, schedule: Q01DX005 (ip), vehicle: saline 96 % of control | dose: 240.0 mg/kg/injection, schedule: Q01DX005 (ip), vehicle: saline 99 % of control
active: dose: 60.0 mg/kg/injection, schedule: Q01DX005 (ip), vehicle: saline 203 % of control

C(=N\Nc1ccccn1)/c1ccccn1.C(=N\Nc1ccccn1)/c1ccccn1.[Cl-].[Fe+3]
inactive: dose: 100.0 mg/kg/injection, schedule: Q01DX001 (ip), vehicle: saline with Tween-80 100 % of control | dose: 200.0 mg/kg/injection, schedule: Q01DX001 (ip), vehicle: saline with Tween-80 89 % of control

CC(=O)c1ccc(O)c(O)c1O
inactive: [11] 103 % of control and 104 % of control | [12] 107 % of control and 120 % of control | [13] 103 % of control and 104 % of control

Cc1cccc(NC(=O)Oc2ccc(Cl)c3cccnc23)c1
inactive: dose: 50.0 mg/kg/injection, schedule: Q01DX009 (ip), vehicle: Klucel (hydroxypropylcellulose) (HPC) 112 % of control | dose: 100.0 mg/kg/injection, schedule: Q01DX009 (ip), vehicle: Klucel (hydroxypropylcellulose) (HPC) 102 % of control | dose: 200.0 mg/kg/injection, schedule: Q01DX009 (ip), vehicle: Klucel (hydroxypropylcellulose) (HPC) 114 % of control

Cc1c2ccncc2c(C)c2c1sc1ccccc12
active: dose: 200.0 mg/kg/injection, schedule: Q04DX003 (ip), vehicle: alkali diluted with water 162 % of control | dose: 200.0 mg/kg/injection, schedule: Q04DX003 (ip), vehicle: distilled water + Tween-80 155 % of control
inactive: dose: 12.5 mg/kg/injection, schedule: Q04DX003 (ip), vehicle: alkali diluted with water 121 % of control | dose: 400.0 mg/kg/injection, schedule: Q04DX003 (ip), vehicle: distilled water + Tween-80 117 % of control

O=c1c2ccccc2sc2c1c(N(CCCl)CCCl)cc1ccccc12
inactive: dose: 25.0 mg/kg/injection, schedule: Q01DX005 (ip), vehicle: distilled water + Tween-80 92 % of control | dose: 50.0 mg/kg/injection, schedule: Q01DX005 (ip), vehicle: distilled water + Tween-80 94 % of control | dose: 100.0 mg/kg/injection, schedule: Q01DX005 (ip), vehicle: distilled water + Tween-80 94 % of control | dose: 200.0 mg/kg/injection, schedule: Q01DX005 (ip), vehicle: distilled water + Tween-80 95 % of control

ON1c2ccc3ccccc3c2C=CC1(c1ccccc1)c1ccccc1
inactive: [5] 103 % of control | [6] 103 % of control | [7] 97 % of control

COc1ccc(Cc2cc3c(cc2OCC(N)=O)OCO3)cc1
inactive: dose: 6.25 mg/kg/injection, schedule: Q01DX005 (ip), vehicle: saline with Tween-80 90 % of control | dose: 12.5 mg/kg/injection, schedule: Q01DX005 (ip), vehicle: saline with Tween-80 90 % of control

CNc1ccc(Cl)cc1SSc1cc(Cl)ccc1NC
inactive: dose: 50.0 mg/kg/injection, schedule: Q01DX001 (ip), vehicle: Klucel (hydroxypropylcellulose) (HPC) 100 % of control | dose: 100.0 mg/kg/injection, schedule: Q01DX001 (ip), vehicle: Klucel (hydroxypropylcellulose) (HPC) 100 % of control | dose: 200.0 mg/kg/injection, schedule: Q01DX001 (ip), vehicle: Klucel (hydroxypropylcellulose) (HPC) 100 % of control

CCOC(=O)C(NC(=O)C(Cc1ccc(N(CCCl)CCCl)cc1)NC(C)=O)C(C)C (centres undefined)
active: [14] 160 % of control | [15] 180 % of control | dose: 50.0 mg/kg/injection, schedule: Q04DX003 (ip), vehicle: saline with Tween-80 159 % of control | [3] 245 % of control | [1] 163 % of control and 175 % of control | dose: 150.0 mg/kg/injection, schedule: Q04DX003 (ip), vehicle: other 151 % of control | dose: 160.0 mg/kg/injection, schedule: Q04DX003 (ip), vehicle: other 161 % of control | [2] 154 % of control | dose: 300.0 mg/kg/injection, schedule: Q04DX003 (ip), vehicle: other 174 % of control | dose: 400.0 mg/kg/injection, schedule: Q04DX003 (ip), vehicle: other 159 % of control
inactive: dose: 3.13 mg/kg/injection, schedule: Q04DX003 (ip), vehicle: saline 100 % of control | dose: 6.25 mg/kg/injection, schedule: Q04DX003 (ip), vehicle: saline 109 % of control | dose: 12.5 mg/kg/injection, schedule: Q04DX003 (ip), vehicle: saline 118 % of control

CC(C)(C)c1ccc(S(=O)(=O)C[CH2][Sn]([CH3])([CH3])[CH3])cc1
inactive: dose: 6.25 mg/kg/injection, schedule: Q01DX009 (ip), vehicle: saline 104 % of control | dose: 12.5 mg/kg/injection, schedule: Q01DX009 (ip), vehicle: saline 87 % of control

FC(F)(F)C1(C(F)(F)F)O[Te]2(OC1(C(F)(F)F)C(F)(F)F)OC(C(F)(F)F)(C(F)(F)F)C(C(F)(F)F)(C(F)(F)F)O2
inactive: dose: 6.25 mg/kg/injection, schedule: Q01DX005 (ip), vehicle: Klucel (hydroxypropylcellulose) (HPC) 100 % of control | dose: 12.5 mg/kg/injection, schedule: Q01DX005 (ip), vehicle: Klucel (hydroxypropylcellulose) (HPC) 112 % of control

CC(N)C(=O)NC(Cc1ccc(O)cc1)C(=O)NC(Cc1ccccc1)C(N)=O (stereo not drawn) (H-Ala-Tyr-Phe-NH2; configuration not given here)
inactive: [16] 102 % of control | [17] 101 % of control | dose: 200.0 mg/kg/injection, schedule: Q01DX005 (ip), vehicle: saline 101 % of control

O=C(O)c1cccc(O)c1O
inactive: [11] 101 % of control and 104 % of control | [12] 89 % of control and 96 % of control | [13] 101 % of control and 89 % of control

COC(=O)C1CC2CCCCC2CC1OC(C)=O (centres undefined)
inactive: [14] 96 % of control | [15] 101 % of control and 111 % of control | [3] 106 % of control and 112 % of control and 121 % of control | [4] 99 % of control and 110 % of control and 121 % of control

CN(C)CCNCCN
inactive: [16] 96 % of control | [17] 99 % of control
